# What was measured:
# [1] = test system: Rattus norvegicus; assay: Half life in rat at 5 mg/kg, iv; format: ADME, organism-based; parameters: dose 5 mg/kg, route intravenous; conditions: in vivo
# [2] = test system: Rattus norvegicus; assay: Apparent volume of distribution in rat at 5 mg/kg, iv; format: ADME, organism-based; parameters: dose 5 mg/kg, route intravenous; conditions: in vivo
compound,measurement,setting,value
Cc1cccc(C(=O)Nc2cccc([C@H](C)Nc3cncc(Cl)n3)c2)c1,t1/2,[1],5.9 h
same,Vz,[2],30.2 L/kg
